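Method: 48-hour compound exposure of cells in 96-well plates, five concentrations, linear interpolation of endpoints. The concentration for 50% growth inhibition is given as GI50. The concentration for full growth arrest is given as TGI.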
Columns and labels:
Assay in all cases: NCI anticancer screen, dose series, 48 h
U251 CNS = tested on: U251 CNS
NCI-H226 lung = tested on: NCI-H226 lung
HOP-62 NSCLC = tested on: HOP-62 NSCLC
K-562 leukemia = tested on: K-562 leukemia
HT29 colon = tested on: HT29 colon
SK-MEL-5 melanoma = tested on: SK-MEL-5 melanoma
TK-10 renal = tested on: TK-10 renal
A498 renal = tested on: A498 renal
PC-3 prostate = tested on: PC-3 prostate
HCC-2998 colon = tested on: HCC-2998 colon

Compound	TGI (U251 CNS)	TGI (NCI-H226 lung)	TGI (HOP-62 NSCLC)	TGI (K-562 leukemia)	TGI (HT29 colon)	TGI (SK-MEL-5 melanoma)	TGI (TK-10 renal)	TGI (A498 renal)	TGI (PC-3 prostate)	TGI (HCC-2998 colon)	GI50 (U251 CNS)	GI50 (NCI-H226 lung)	GI50 (HOP-62 NSCLC)	GI50 (K-562 leukemia)	GI50 (HT29 colon)	GI50 (SK-MEL-5 melanoma)	GI50 (TK-10 renal)	GI50 (A498 renal)	GI50 (PC-3 prostate)	GI50 (HCC-2998 colon)
CCCOC(=O)C1C2CCC(O2)C1C(=O)O (stereo not drawn)	> 100 µM	> 100 µM	> 100 µM	> 100 µM	> 100 µM	> 100 µM	> 100 µM	> 100 µM	> 100 µM	–	–	–	–	–	–	–	–	–	–	–
CCOC(=O)CC(NC(=O)c1ccc(N=NN(C)C)cc1)C(=O)OCC (stereo not drawn)	> 100 µM	> 100 µM	> 100 µM	> 100 µM	> 100 µM	> 100 µM	> 100 µM	> 100 µM	–	> 100 µM	–	–	–	–	–	–	–	–	–	–
CCCCCCCCCCCCCCCCCC(=O)NCC(COP(=O)(O)O)OCC (stereo not drawn)	–	58.4 µM	54.5 µM	> 100 µM	> 100 µM	> 100 µM	> 100 µM	> 100 µM	–	> 100 µM	–	–	–	–	–	–	–	–	–	–
COc1cc2c(cc1OCCCOc1ccc(-c3nc4ccc(N5CCN(C)CC5)cc4[nH]3)cc1)N=C[C@@H]1CCCN1C2=O	5.07 µM	< 0.01 µM	< 0.01 µM	0.818 µM	> 100 µM	< 0.01 µM	0.492 µM	< 0.01 µM	< 0.01 µM	–	< 0.01 µM	< 0.01 µM	< 0.01 µM	< 0.01 µM	< 10 nM	< 0.01 µM	< 0.01 µM	< 10 nM	< 0.01 µM	–
COC(=O)C(=O)C(C(=O)C(=O)Nc1cc(Cl)c(Cl)cc1Cl)c1nc2ccc([N+](=O)[O-])cc2[nH]c1=O (stereo not drawn)	> 100 µM	> 100 µM	–	> 100 µM	–	> 100 µM	> 100 µM	–	–	> 100 µM	–	–	–	–	–	–	–	–	–	–
Cc1ccccc1NC(=O)Cc1csc(N=Nc2c(O)[nH]c3ccccc23)n1	> 1 µM	> 100 µM	–	> 100 µM	> 100 µM	> 100 µM	> 100 µM	> 100 µM	37.2 µM	–	–	–	–	–	–	–	–	–	–	–
CC(=O)[C-](C(C)=O)c1ccccc1.CC(=O)[C-](C(C)=O)c1ccccc1.CC(=O)[C-](C(C)=O)c1ccccc1.[Cl-].[Zr+4]	> 100 µM	> 100 µM	> 100 µM	> 100 µM	> 100 µM	> 100 µM	> 100 µM	> 100 µM	–	–	58 µM	> 100 µM	> 100 µM	> 100 µM	> 100000 nM	> 100 µM	> 100 µM	> 100000 nM	–	–
CC(C)N1C(C)[C@@H](c2ccccc2)O[P@]1(=O)CC1=CCCCC1 (stereo partly drawn)	> 100 µM	> 100 µM	> 100 µM	> 100 µM	> 100 µM	> 100 µM	> 100 µM	> 100 µM	–	> 100 µM	–	–	–	–	–	–	–	–	–	–
COc1cc(C(C#N)NNc2nc(C)cc(=O)[nH]2)cc(OC)c1OC (stereo not drawn)	> 100 µM	> 100 µM	> 100 µM	> 100 µM	> 100 µM	> 100 µM	> 100 µM	–	–	–	–	–	–	–	–	–	–	–	–	–
CC(C)(C)Sc1nnc(SC(C)(C)C)c2c(=O)[nH]nc(SC(C)(C)C)c12	19.7 µM	28.5 µM	27 µM	26.8 µM	19.1 µM	17.2 µM	37.8 µM	27.1 µM	–	23.9 µM	–	–	–	–	–	–	–	–	–	–
Cc1noc(/N=C2\C=C(Nc3onc(C)c3C)C(=O)c3ccccc32)c1C	> 100 µM	> 100 µM	> 100 µM	> 100 µM	> 100 µM	> 100 µM	> 100 µM	> 100 µM	–	> 100 µM	–	–	–	–	–	–	–	–	–	–
c1ccc(-c2nnc3nn4c(-c5ccccc5)cnnc4c3c2-c2ccccc2)cc1	> 100 µM	> 100 µM	–	> 100 µM	> 100 µM	> 100 µM	83.1 µM	> 100 µM	–	> 100 µM	–	–	–	–	–	–	–	–	–	–
COCCN1C(=O)C2c3[nH]c4ccccc4c3C3CCC(C(C)(C)C)CC3C2C1=O (stereo not drawn)	28.9 µM	39 µM	37.4 µM	> 100 µM	27 µM	30.9 µM	> 10 µM	–	29.1 µM	42.9 µM	–	–	–	–	–	–	–	–	–	–
O=S1(=O)c2ccccc2N=C(c2ccccc2Cl)CC1c1ccc(F)cc1 (stereo not drawn)	28.4 µM	–	–	34.6 µM	–	31.4 µM	50.4 µM	35.7 µM	–	28.4 µM	–	–	–	–	–	–	–	–	–	–
O=Cc1ccc(N2CCN(c3ccc(C=O)cc3)CC2)cc1	> 100 µM	4.12 µM	> 100 µM	> 100 µM	> 100 µM	> 100 µM	76.8 µM	–	> 100 µM	> 100 µM	> 100 µM	1.65 µM	> 100 µM	> 100 µM	> 100000 nM	> 100 µM	4.13 µM	–	> 100 µM	60.8 µM
Cc1cc(Nc2nc(-c3ccncc3)nc3ccccc23)n[nH]1	> 100 µM	> 100 µM	> 100 µM	> 100 µM	> 100 µM	> 100 µM	> 100 µM	6.01 µM	–	> 100 µM	4.1 µM	13.8 µM	11 µM	4.99 µM	2880 nM	52.6 µM	2.07 µM	654 nM	–	29.6 µM
Cc1ccc2nc(NC(=O)C(=O)CC(=O)c3cccc4ccccc34)sc2c1	49.7 µM	> 100 µM	56.9 µM	> 100 µM	> 100 µM	55.4 µM	44.6 µM	> 100 µM	–	> 100 µM	–	–	–	–	–	–	–	–	–	–
CCCCNC1=C(C(=O)OCC)/C(=N/NC(=O)c2ccccc2O)CO1	> 100 µM	> 100 µM	> 100 µM	> 100 µM	–	> 100 µM	> 100 µM	> 100 µM	–	> 100 µM	–	–	–	–	–	–	–	–	–	–
O=C1CCC(=O)c2sccc2N1	> 100 µM	> 100 µM	> 100 µM	> 100 µM	> 100 µM	> 100 µM	> 100 µM	> 100 µM	–	> 100 µM	–	–	–	–	–	–	–	–	–	–
O=CCCCC(Sc1ccccc1)Sc1ccccc1	30.3 µM	–	> 100 µM	76.6 µM	–	30.8 µM	> 100 µM	> 100 µM	–	84 µM	–	–	–	–	–	–	–	–	–	–
COC(=O)C(C(=O)C(N)=O)c1csc(-n2nc(-c3ccccc3)cc2-c2ccccc2)n1 (stereo not drawn)	> 31.6 µM	> 31.6 µM	–	> 31.6 µM	> 100 µM	> 31.6 µM	> 31.6 µM	> 31.6 µM	–	> 31.6 µM	–	–	–	–	–	–	–	–	–	–
